Reference: patent US20230072421A1, “TARGETED RADIOPHARMACEUTICALS FOR THE DIAGNOSIS AND TREATMENT OF PROSTATE CANCER” (Bayer AS, priority 2019, published 2023)

Legend:
VCaP cells = assay: Cell proliferation assay (CellTiter-Glo, 5-day exposure), VCaP; type: cell-based; conditions: 4000 cells/well, Th-227 labelled at 375 kBq/nmol, mean of 1 to 6 experiments
Experimental: (§1) Inhibition of cell proliferation of Thorium-227 labeled PMSA SMOL ligands was tested different prostate cancer cell lines, namely 22Rv1, VCaP, C4-2 (all from ATCC, Manassas, Va., USA) and LNCaP (DMSZ, Braunschweig). Cells were seeded using the following conditions in 384 well plates (Corning) in 30 μl of growth media at 4000 cells/well for VCaP cells and 1000 cells/well for 22Rv1, C4-2 and LNCaP cells.
(§2) Cells were cultivated an incubator at 37° C. and 5% C02 over night. […] In sister plates cell viability at treatment start (d=0) was determined using CellTiter-Glo® assay (CTG, Promega, Madison, Wis., USA), by adding 30 μl per well CTG solution, incubation for 10 min and reading of Luminescence in a PheraStarFSX instrument (BMG Labtech). After a 5-day exposure in the presenced of test compounds, cell viability of treated or untreated control cells was determined again using CellTiter-Glo® assay (Promega, Madison, Wis., USA). […] The DRC software is a Biobook Spreadsheet that was developed by Bayer AG and Bayer Business Services on the IDBS E-Workbook Suite platform (IDBS: ID Business Solutions Ltd., Guildford, UK).

22Rv1 cells = assay: Cell proliferation assay (CellTiter-Glo, 5-day exposure), 22Rv1; type: cell-based; conditions: 22Rv1, 1000 cells/well, Th-227 labelled at 375 kBq/nmol, mean of 1 to 6 experiments
Experimental: as §1, §2

C4-2 cells = assay: Cell proliferation assay (CellTiter-Glo, 5-day exposure), C4-2; type: cell-based; conditions: C4-2, 1000 cells/well, Th-227 labelled at 375 kBq/nmol, mean of 1 to 6 experiments
Experimental: as §1, §2

[1] = target: T1, PSMA-expressing LNCaP cells (Homo sapiens, UniProt Q04609); assay: Binding competition assay against 3H-PSMA-617 on LNCaP cells; conditions: for remaining activity at 0.01 µM / remaining activity at 0.1 µM: 10 nM 3H-PSMA-617, 2 h at 37° C., triplicates; for remaining activity at 0.01 µM: competing non-radiolabeled compound 10 nM; for remaining activity at 0.1 µM: competing non-radiolabeled compound 100 nM
T1 construct: PSMA-expressing LNCaP cells; endogenous in cells; host or cells: LNCaP
Outline: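 Compounds added to LNCaP cells in growth medium, 2 h at 37 °C, 5% CO2. After two ice-cold PBS washes, cells lysed in 0.3 M NaOH and bound radioactivity measured by liquid scintillation counting.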

T1 sequence (Q04609 whole entry): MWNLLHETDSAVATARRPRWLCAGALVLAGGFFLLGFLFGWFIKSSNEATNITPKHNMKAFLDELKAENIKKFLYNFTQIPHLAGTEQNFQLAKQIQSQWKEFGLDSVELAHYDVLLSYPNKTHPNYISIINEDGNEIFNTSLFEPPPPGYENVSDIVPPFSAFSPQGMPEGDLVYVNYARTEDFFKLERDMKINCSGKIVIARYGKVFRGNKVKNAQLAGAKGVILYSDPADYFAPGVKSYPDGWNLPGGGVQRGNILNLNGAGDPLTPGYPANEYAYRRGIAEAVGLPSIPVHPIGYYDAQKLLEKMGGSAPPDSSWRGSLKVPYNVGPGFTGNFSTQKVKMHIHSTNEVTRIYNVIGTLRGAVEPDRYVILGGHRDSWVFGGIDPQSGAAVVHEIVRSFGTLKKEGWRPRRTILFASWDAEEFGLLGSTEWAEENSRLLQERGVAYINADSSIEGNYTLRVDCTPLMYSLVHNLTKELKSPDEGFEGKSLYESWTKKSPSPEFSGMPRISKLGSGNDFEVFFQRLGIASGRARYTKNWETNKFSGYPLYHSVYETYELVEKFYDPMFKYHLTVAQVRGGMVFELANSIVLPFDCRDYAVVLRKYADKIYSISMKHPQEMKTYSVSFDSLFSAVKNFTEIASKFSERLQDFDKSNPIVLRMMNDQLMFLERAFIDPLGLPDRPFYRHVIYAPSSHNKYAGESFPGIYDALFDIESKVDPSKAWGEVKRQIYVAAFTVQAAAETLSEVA

Row | remaining activity at 0.01 µM ([1]; LNCaP cells) | remaining activity at 0.1 µM ([1]; LNCaP cells) | Molecule | Proliferation assay on cancer cell lines by TTCs Default Pivot #3 IC50 [kBq/mL] VCap 4000cells 375kBq/nmol (mean) (VCaP cells) | Proliferation assay on cancer cell lines by TTCs Default Pivot #3 IC50 [kBq/mL] 22Rv1 1000cells 375kBq/nmol (mean) (22Rv1 cells) | Proliferation assay on cancer cell lines by TTCs Default Pivot #3 IC50 [kBq/mL] C4-2 1000cells 375kBq/nmol (mean) (C4-2 cells) | competition against 3H-PSMA-617 on PSMA-expressing LNCaP cells (in words) ([1]; comparison between examples) | Non-specific binding: remaining binding of 3H-PSMA-617 in the presence of unlabeled PSMA-617 ([1]; unlabeled PSMA-617 at 5000 nM (500 fold excess), LNCaP cells)
1 | – | – | O=C([O-])CN1CCN(CC(=O)[O-])CCN(CC(=O)NCc2cccc(C(=O)N[C@@H](Cc3ccc4ccccc4c3)C(=O)NCCCC[C@H](NC(=O)N[C@@H](CCC(=O)O)C(=O)O)C(=O)O)c2)CCN(CC(=O)[O-])CC1.[227Th+4] [Example 27-B-227Th, [^227Th]Thorium (3S,10S,14S)-3-[(naphthalen-2-yl)methyl]-1,4,12-trioxo-1-{3-[(2-{4,7,10-tris[(carboxy-kappaO)methyl]-1,4,7,10-tetraazacyclododecan-1-yl-kappa^4N^1,N^4,N^7,N^10}acetamido)methyl]phenyl}-2,5,11,13-tetraazahexadecane-10,14,16-tricarboxylate] | 0.73 kBq/mL | 0.65 kBq/mL | 0.08 kBq/mL | – | –
2 | – | – | [^227Th]Thorium-{N^6-[3-(quinolin-2-yl)-N-{(1r,4S)-4-[(2-{4,7,10-tris[(carboxy-kappaO)methyl]-1,4,7,10-tetraazacyclododecan-1-yl-kappa^4N^1,N^4,N^7,N^10}acetamido)methyl]cyclohexane-1-carbonyl}-L-alanyl]-N^2-{[(1S)-1,3-dicarboxypropyl]carbamoyl}-L-lysinate} [Example 17-B-227Th] | 0.73 kBq/mL | 0.8 kBq/mL | 0.15 kBq/mL | – | –
3 | – | – | O=C([O-])CN1CCN(CC(=O)[O-])CCN(CC(=O)NCc2ccc(C(=O)N[C@@H](Cc3ccc4ccccc4c3)C(=O)NCCCC[C@H](NC(=O)N[C@@H](CCC(=O)O)C(=O)O)C(=O)O)cc2)CCN(CC(=O)[O-])CC1.[227Th+4] [Example 24-B-227Th, [^227Th]Thorium (3S,10S,14S)-3-[(naphthalen-2-yl)methyl]-1,4,12-trioxo-1-{4-[(2-{4,7,10-tris[(carboxy-kappaO)methyl]-1,4,7,10-tetraazacyclododecan-1-yl-kappa^4N^1,N^4,N^7,N^10}acetamido)methyl]phenyl}-2,5,11,13-tetraazahexadecane-10,14,16-tricarboxylate] | 0.68 kBq/mL | 0.56 kBq/mL | 0.12 kBq/mL | – | –
4 | – | – | O=C([O-])CN1CCN(CC(=O)[O-])CCN(CC(=O)NCc2ccc(C(=O)N[C@@H](Cc3ccc4ccccc4c3)C(=O)NCCCC[C@H](NC(=O)N[C@@H](CCC(=O)O)C(=O)O)C(=O)O)cn2)CCN(CC(=O)[O-])CC1.[227Th+4] [Example 26-B-227Th, [^227Th]Thorium (3S,10S,14S)-3-[(naphthalen-2-yl)methyl]-1,4,12-trioxo-1-{6-[(2-{4,7,10-tris[(carboxy-kappaO)methyl]-1,4,7,10-tetraazacyclododecan-1-yl-kappa^4N^1,N^4,N^7,N^10}acetamido)methyl]pyridin-3-yl}-2,5,11,13-tetraazahexadecane-10,14,16-tricarboxylate] | 1.15 kBq/mL | 0.87 kBq/mL | 0.12 kBq/mL | – | –
5 | – | – | O=C([O-])CN1CCN(CC(=O)[O-])CCN(CC(=O)Nc2ccc(CC(=O)N[C@@H](Cc3ccc4ccccc4c3)C(=O)NCCCC[C@H](NC(=O)N[C@@H](CCC(=O)O)C(=O)O)C(=O)O)cc2)CCN(CC(=O)[O-])CC1.[227Th+4] [Example 23-B-227Th, [^227Th]Thorium-(4S,11S,15S)-4-[(naphthalen-2-yl)methyl]-2,5,13-trioxo-1-[4-(2-{4,7,10-tris[(carboxy-kappaO)methyl]-1,4,7,10-tetraazacyclododecan-1-yl-kappa^4N^1,N^4,N^7,N^10}acetamido)phenyl]-3,6,12,14-tetraazaheptadecane-11,15,17-tricarboxylate] | 3 kBq/mL | 0.96 kBq/mL | 1.32 kBq/mL | – | –
6 | – | – | O=C([O-])CN1CCN(CC(=O)[O-])CCN(CC(=O)NCc2ccc(C(=O)N[C@@H](Cc3ccc4ccccc4c3)C(=O)NCCCC[C@H](NC(=O)N[C@@H](CCC(=O)O)C(=O)O)C(=O)O)nc2)CCN(CC(=O)[O-])CC1.[227Th+4] [Example 25-B-227Th, [^227Th]Thorium (3S,10S,14S)-3-[(naphthalen-2-yl)methyl]-1,4,12-trioxo-1-{5-[(2-{4,7,10-tris[(carboxy-kappaO)methyl]-1,4,7,10-tetraazacyclododecan-1-yl-kappa^4N^1,N^4,N^7,N^10}acetamido)methyl]pyridin-2-yl}-2,5,11,13-tetraazahexadecane-10,14,16-tricarboxylate] | 1.51 kBq/mL | 0.73 kBq/mL | 0.1 kBq/mL | – | –
7 | 78% | 66% | Cn1ccc(C(=O)NCCN(CCNC(=O)c2ccn(C)c(=O)c2O)CC(Cc2ccc(NC(=O)CCC(=O)N[C@H](CCCNC(=N)N)C(=O)N[C@H](CCCNC(=N)N)C(=O)NC[C@H]3CC[C@H](C(=O)N[C@@H](Cc4ccc5ccccc5c4)C(=O)NCCCCC(NC(=O)N[C@@H](CCC(=O)O)C(=O)O)C(=O)O)CC3)cc2)CN(CCNC(=O)c2ccn(C)c(=O)c2O)CCNC(=O)c2ccn(C)c(=O)c2O)c(O)c1=O (stereo partly drawn) [Example 46-E] | – | – | – | – | –
8 | – | – | O=C(O)CC[C@H](NC(=O)N[C@@H](CCCCNC(=O)[C@H](Cc1ccc2ccccc2c1)NC(=O)[C@H]1CC[C@H](CNC(=O)CN2CCN(CC(=O)O)CCN(CC(=O)O)CCN(CC(=O)O)CC2)CC1)C(=O)O)C(=O)O [PSMA-617, reference compound] | – | – | – | – | below 5%
9 | 80% | 78% | O=C(O)CC[C@@H](NC(=O)N[C@@H](CCCCNC(=O)[C@H](Cc1ccc2ccccc2c1)NC(=O)[C@H]1CC[C@H](CNC(=O)CN2CCN(CC(=O)O)CCN(CC(=O)O)CCN(CC(=O)O)CC2)CC1)C(=O)O)C(=O)O [Example 1-B-D, (3S,10S,14R)-3-[(naphthalen-2-yl)methyl]-1,4,12-trioxo-1-[(1r,4S)-4-({2-[4,7,10-tris(carboxymethyl)-1,4,7,10-tetraazacyclododecan-1-yl]acetamido}methyl)cyclohexyl]-2,5,11,13-tetraazahexadecane-10,14,16-tricarboxylic acid] | – | – | – | – | –
10 | 55% | 11% | CNc1cc(C[C@@H](NC(=O)[C@H]2CC[C@H](CNC(=O)CN3CCN(CC(=O)O)CCN(CC(=O)O)CCN(CC(=O)O)CC3)CC2)C(=O)NCCCC[C@H](NC(=O)N[C@@H](CCC(=O)O)C(=O)O)C(=O)O)cc2ccccc12 [Example 37-B, (3R,10S,14S)-3-{[4-(methylamino)naphthalen-2-yl]methyl}-1,4,12-trioxo-1-[(1r,4S)-4-({2-[4,7,10-tris(carboxymethyl)-1,4,7,10-tetraazacyclododecan-1-yl]acetamido}methyl)cyclohexyl]-2,5,11,13-tetraazahexadecane-10,14,16-tricarboxylic acid] | – | – | – | – | –

Row | Molecule | remaining activity at 0.01 µM ([1]; LNCaP cells) | remaining activity at 0.1 µM ([1]; LNCaP cells) | Proliferation assay on cancer cell lines by TTCs Default Pivot #3 IC50 [kBq/mL] VCap 4000cells 375kBq/nmol (mean) (VCaP cells) | Proliferation assay on cancer cell lines by TTCs Default Pivot #3 IC50 [kBq/mL] 22Rv1 1000cells 375kBq/nmol (mean) (22Rv1 cells) | Proliferation assay on cancer cell lines by TTCs Default Pivot #3 IC50 [kBq/mL] C4-2 1000cells 375kBq/nmol (mean) (C4-2 cells) | competition against 3H-PSMA-617 on PSMA-expressing LNCaP cells (in words) ([1]; comparison between examples) | Non-specific binding: remaining binding of 3H-PSMA-617 in the presence of unlabeled PSMA-617 ([1]; unlabeled PSMA-617 at 5000 nM (500 fold excess), LNCaP cells)
11 | O=C(O)CC[C@H](NC(=O)N[C@@H](CCCCNC(=O)[C@H](Cc1ccc2ccccc2c1)NC(=O)c1ccc(CNC(=O)CN2CCN(CC(=O)O)CCN(CC(=O)O)CCN(CC(=O)O)CC2)cn1)C(=O)O)C(=O)O [Example 25-B, (3S,10S,14S)-3-[(naphthalen-2-yl)methyl]-1,4,12-trioxo-1-[5-({2-[4,7,10-tris(carboxymethyl)-1,4,7,10-tetraazacyclododecan-1-yl]acetamido}methyl)pyridin-2-yl]-2,5,11,13-tetraazahexadecane-10,14,16-tricarboxylic acid] | 54% | 5% | – | – | – | improved competition in comparison to the cyclohexyl examples 1-A and 1-B | –
12 | Cc1cc(C(=O)NCCN(CCCN(CCNC(=O)c2cc(C)n(CC(=O)O)c(=O)c2O)CCNC(=O)c2cc(C)n(CC(=O)NCc3ccc(C(=O)N[C@@H](Cc4ccc5ccccc5n4)C(=O)NCCCC[C@H](NC(=O)N[C@@H](CCC(=O)O)C(=O)O)C(=O)O)nc3)c(=O)c2O)CCNC(=O)c2cc(C)n(CC(=O)O)c(=O)c2O)c(O)c(=O)n1CC(=O)O [34-C monomer] | 58% | 10% | – | – | – | – | –
